Tests used:
EL-4 cells = assay: Sphingomyelin and ceramide levels in intact EL-4 cells; assay type: cell-based, murine; details: maximally effective concentrations (n=5)
Experimental: IL-1β effects on sphingomyelin levels in EL4 cells. Time course (A) and dose response (B). Cells were grown to growth arrest (1-1.5×10^6 cells ml^-1) in DME/Ham's F12 medium (1:1, v/v) containing 10% horse serum and for 48 hours [^3 H]choline (1 μCi ml^-1). On the day of an experiment, cells were resuspended back into the same medium at 10×10^6 cells ml^-1 and stimulated with 40 ng ml^-1 IL-1β for the indicated times (A) or for 30 minutes with increasing concentrations of IL-1β (B). Human IL-1β may be obtained using methods well known to those skilled in the art. Reactions were terminated with CHCl3 :CH3 OH:HCl (100:100:1) containing 10 mM EDTA (82). Lipids in the organic phase extract were dried under N2 and subjected to mild alkaline hydrolysis (0.1 M methanolic KOH for 1 hour at 37° C.) to remove glycerophospholipids. Sphingomyelin was resolved by thin-layer chromatography (TLC) using CHCl3 :CH3 OH:CH3 COOH:H2 O (60:30:8:5) as solvent, identified by iodine vapor staining, and quantified by liquid scintillation spectrometry. As previously reported, the use of [^3 H]choline as a measure of sphingomyelin content was validated by simultaneous phospholipid phosphorus measurements. Each value represents the mean±SEM of triplicate determinations from four experiments in (A), and one representative of four similar studies performed in triplicate in (B).
Effect of IL-1β on ceramide levels in EL-4 cells. Cells were stimulated as in FIG. 12 with IL-1β (40 ng ml^-1) and ceramide contained within the organic phase extract quantified enzymatically using the E. coli diacylglycerol kinase reaction. Lipids were resolved by TLC using CHCl3 :CH3 OH:CH3 COOH (65/15/5) as solvent, autoradiographed and quantified by liquid scintillation spectrometry. Each value represents the mean±SEM of triplicate determinations from 10 experiments.
The murine thymoma EL-4 cell line is a well-defined IL-1 responsive cell line that expresses functional IL-1 receptors. Upon stimulation with IL-1, these cells up-regulate the IL-2 receptor and secrete IL-2 [62]. Initial studies were designed to investigate the effects of IL-1β on cellular sphingomyelin content. Cells, grown in Dulbecco's Modified Eagle's (DME)/Ham's F-12 medium containing 10% horse serum and [^3 H]choline (1 μCi ml^-1), were resuspended back into the same medium at 10×10^6 cells ml^-1 and stimulated with IL-1β. IL-1β is commercially available.

[1] = system: ceramide-activated protein kinase; assay: EGFR peptide phosphorylation by kinase in A-431 microsomal membranes / postnuclear supernatant; assay type: biochemical, human (A-431 epidermoid carcinoma cells)
[2] = system: ceramide-activated protein kinase; details: treatment of intact cells; literature; cited from earlier work
Raf-1 = Raf-1 phosphorylation in intact HL-60 cells; assay type: cell-based, human (HL-60 cells)
Experimental: To examine this possibility, intact HL-60 cells were metabolically labeled with ^32 P-orthophosphate for 4 hr followed by stimulation with TNF for the indicated times (FIG. 20A). […] Raf-1 proteins were resolved by SDS-PAGE and autoradiographed.
FIG. 20A--300×10^6 cells were resuspended at 37° C. in 15 ml of serum-free phosphate-free RPMI medium ([…]) containing 6 mCi ^32 P-orthophosphate. After […], cells were resuspended into the same buffer without radiolabel (5×10^7 /point) and stimulated with TNF (1 nM). At the indicated times, ice-cold serum-free phosphate-free RPMI was added and cells were homogenized as described in FIG. 17 in RIPA lysis buffer. Cell debris was removed by centrifugation at 700×g for 5 min. […] After SDS-PAGE, Raf-1 was transferred to an Immobilon PVDF (Millipore) membrane according to the vendor's instructions. […] The data (CPM/Raf protein) are presented as fold of control and represent one of three studies performed in triplicate.

## CCCCCCCCCCCCCC(=O)O[C@@H]1[C@@H](C)[C@@]2(O)[C@@H](C=C(CO)C[C@]3(O)C(=O)C(C)=C[C@@H]23)[C@@H]2C(C)(C)[C@]12OC(C)=O [TPA, 12-0-tetradecanoylphorbol-13-acetate]
EL-4 cells
  ceramide response: failed to elicit a ceramide response

## CCCCCCCCCCCCC/C=C/[C@@H](O)[C@@H](N)CO [sphingosine]
[1]; 2 minutes of stimulation, maximal effect for ceramide at 1 μM
  EGFR peptide phosphorylation, fold of control: 1.6 fold of control
[1]; words
  effect on EGFR peptide phosphorylation: similarly effective

## TNF-α
[2]
  enhancement of CAP kinase autophosphorylation / activity: 5-10 fold
Raf-1; TNF
  duration of elevated Raf-1 phosphorylation: at least 20 min
Raf-1; TNF 1 nM, ceramide, sphingomyelinase 10 mU/ml
  Raf-1 phosphorylation in intact HL-60 cells: increased within seconds

From patent US6040149A, “Assay for identifying agents which act on the ceramide-activated protein kinase, kinase suppressor of ras, and methods of using said agents” (priority 1997, dated 2000)
